Test results published in patent publication US20240174723A1, “STAPLED ANTIMICROBIAL PEPTIDES (STAMPS) AND USES THEREOF” (Lytica Therapeutics, Inc., priority 2021, published 2024).
In brackets after ≈: the same amount, converted by molar mass. Positions of bridges follow the written chain, without caps; N, C: chain ends. Non-standard residues stand in square brackets, D forms with d. Residues, ends and D or L forms follow the SMILES beside them. Phe(4-tBu) = CC(C)(C)c1ccc(C[C@H](N)C(=O)O)cc1; S5 = C=CCCC[C@](C)(N)C(=O)O; Orn = NCCC[C@H](N)C(=O)O; Dab = NCC[C@H](N)C(=O)O

Assays:
[1] = tested on: E. coli; assay type: cell-based, Escherichia coli
How it was run: (§1)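 Visible-growth endpoint after 20-24 h at 37 °C defines the MIC. Test organisms, pre-grown to log phase, were exposed at 5×10^5 CFU/ml to peptide dilution series in standard or cation-adjusted Mueller-Hinton broth.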

[2] = tested on: A. baumannii; assay type: cell-based, Acinetobacter baumannii
How it was run: as §1

[3] = tested on: P. aeruginosa; assay type: cell-based, Pseudomonas aeruginosa
How it was run: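 MIC taken as lowest peptide concentration with no visible growth after 20-24 h at 37 °C. Peptide serial dilutions from water stocks met P. aeruginosa inoculum (5×10^5 CFU/ml final) in MHB or MHB II, per a CLSI-adapted microbroth protocol.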

[4] = tested on: K. pneumoniae; assay type: cell-based, Klebsiella pneumoniae
How it was run: as §1

[5] = tested on: S. aureus; assay type: cell-based, Staphylococcus aureus
How it was run: as §1

[6] = in vitro; assay type: cell-based; conditions: human
Protocol: Cell culture: RPTEC were maintained in MEM media supplemented with growth factors. HEPG2 cell line was maintained in Eagle's Minimum Essential Medium (EMEM) supplemented with fetal bovine serum to a final concentration of 10%.
90 minute cytotoxicity assay: Cells were plated in a 96-well format, and after overnight incubation, media was replaced with fresh media. Serial dilutions of StAMPs from a 5 mg/mL water stock, or vehicle, were added to the cells in a final volume of 100 μl. After incubating at 37° C. for 90 min, 50 μl of cell culture media was transferred to a clear 96-well plate, incubated with 50 μl of lactate dehydrogenase (LDH) assay reagent for 10 min, and absorbance measured at 490 nm on a microplate reader.
Renal toxicity was measured after 90 minutes of incubation, while liver toxicity was measured after 48 hours of incubation with StAMPs. N/A=not tested. The following apply to all peptides (i.e., StAMPs) listed in Tables A-C: Crosslinks (X^1—X^2 and X^3—X^4): (alk); N-terminus: —NH2; C-terminus: amidated with —NH2; counterion: Cl^−. The following apply to all peptides (i.e., StAMPs) listed in Table D: Crosslinks (X^1—X^2 and X^3—X^4): (alk); N-terminus: —NH2; C-terminus: as shown in table; counterion: Cl^−.
StAMP Micelle Formulation: DSPE-MPEG(2000) was suspended in buffered saline at 50-100 mg/mL overnight. StAMP stock solutions at 5-20 mg/mL in buffered saline were prepared and equal volumes of micelle and StAMP stock solution were mixed at the desired StAMP:Lipid ratio. Suspensions were allowed to sit for 5-10 minutes at room temperature before being used in in vitro and in vivo assays.
In Table E, the StAMP is StAMP 4 (Table A) and “Lipid”=DSPE-MPEG(2000).

[7] = in vitro; assay type: cell-based; conditions: human, Inhibitory Concentration at 50% Cytotoxicity (IC50) Human Liver Cells (HepG2)
How it was run: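 Cytotoxicity read by CellTiter-Glo luminescence after 48 h at 37 °C exposure to serially diluted StAMPs or vehicle. HepG2 cells were grown in EMEM plus 10% FBS and given 4 h to attach before dosing; peptides came from a 5 mg/mL aqueous stock.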

SMILES | Minimum Inhibitory Concentration (MIC) E. coli [1] | Minimum Inhibitory Concentration (MIC) A. baumannii [2] | Minimum Inhibitory Concentration (MIC) P. aeruginosa [3] | Minimum Inhibitory Concentration (MIC) K. pneumoniae [4] | Minimum Inhibitory Concentration (MIC) S. aureus [5] | IC50 at 90 min [6] | IC50 at 48 hours [7]
CC(C)[C@@H]1NC(=O)[C@@](C)(NC(=O)[C@H](C)NC(=O)[C@H](CCCCN)NC(=O)CNC(=O)[C@H](Cc2ccccc2)NC(=O)[C@H](CCCCN)NC(=O)[C@H](CCCCN)NC(=O)[C@H](CCCCN)NC(=O)[C@H](CO)NC(=O)[C@H](Cc2c[nH]cn2)NC(=O)[C@]2(C)CCCC=CCCC[C@](C)(NC(=O)CN)C(=O)NCC(=O)N[C@@H](CCCCN)C(=O)N[C@@H](Cc3ccccc3)C(=O)N2)CCCC=CCCC[C@@](C)(C(=O)N[C@@H](C)C(=O)N[C@@H](CCCCN)C(=O)N[C@@H](CCCCN)C(N)=O)NC(=O)[C@H](CCC(=O)O)NC(=O)[C@H](Cc2c[nH]c3ccccc23)NC1=O (single isomer, unassigned) [compound 10] | 4 µg/mL | 2 µg/mL | 4 µg/mL | 4 µg/mL | 32 µg/mL | 110 µg/mL (≈ 41.3 µM) | 150 µg/mL (≈ 56.4 µM)
CC(C)[C@@H]1NC(=O)[C@@](C)(NC(=O)[C@H](C)NC(=O)[C@H](CCCCN)NC(=O)CNC(=O)[C@H](Cc2ccccc2)NC(=O)[C@H](CCCCN)NC(=O)[C@H](CCCCN)NC(=O)[C@H](CCCCN)NC(=O)[C@H](CO)NC(=O)[C@H](Cc2c[nH]cn2)NC(=O)[C@]2(C)CCCC=CCCC[C@](C)(NC(=O)CN)C(=O)NCC(=O)N[C@@H](CCCCN)C(=O)N[C@@H](Cc3ccccc3)C(=O)N2)CCCC=CCCC[C@@](C)(C(=O)N[C@@H](C)C(=O)N[C@@H](CCCCN)C(=O)N[C@@H](CCCCN)C(N)=O)NC(=O)[C@H](Cc2c[nH]c3ccccc23)NC(=O)CNC1=O [compound 66] (H-G[S5]GKF[S5]HSKKKFGKA[S5]VGW[S5]AKK-NH2; staple 2-6, 16-20) | 4 µg/mL | 4 µg/mL | 6 µg/mL | 4 µg/mL | 32 µg/mL | 16 µg/mL (≈ 6.18 µM) | 38 µg/mL (≈ 14.7 µM)
CC(C)[C@@H]1NC(=O)[C@@](C)(NC(=O)[C@H](C)NC(=O)[C@H](CCCCN)NC(=O)CNC(=O)[C@H](Cc2ccccc2)NC(=O)[C@H](CCCCN)NC(=O)[C@H](CCCCN)NC(=O)[C@H](CCCCN)NC(=O)[C@H](CCCCN)NC(=O)[C@H](CCCCN)NC(=O)[C@]2(C)CCCC=CCCC[C@](C)(NC(=O)CN)C(=O)NCC(=O)N[C@@H](CCCCN)C(=O)N[C@@H](Cc3ccccc3)C(=O)N2)CCCC=CCCC[C@@](C)(C(=O)N[C@@H](C)C(=O)N[C@@H](CCCCN)C(=O)N[C@@H](CCCCN)C(=O)NCC(=O)NCC(=O)N[C@@H](CCC(=O)O)C(N)=O)NC(=O)[C@H](CCC(=O)O)NC(=O)[C@H](Cc2ccc(C(C)(C)C)cc2)NC1=O [compound 36] (H-G[S5]GKF[S5]KKKKKFGKA[S5]V[Phe(4-tBu)]E[S5]AKKGGE-NH2; staple 2-6, 16-20) | 2 µg/mL | 2 µg/mL | 4 µg/mL | 2 µg/mL | 64 µg/mL | 96 µg/mL (≈ 32.5 µM) | > 200 µg/mL
CC(C)[C@@H]1NC(=O)[C@H](C(C)C)NC(=O)[C@@](C)(NC(=O)[C@H](C)NC(=O)[C@H](CCCCN)NC(=O)CNC(=O)[C@H](Cc2ccccc2)NC(=O)[C@H](CCCCN)NC(=O)[C@H](CCCCN)NC(=O)[C@H](CCCCN)NC(=O)[C@H](CCCCN)NC(=O)[C@H](Cc2c[nH]cn2)NC(=O)[C@]2(C)CCCC=CCCC[C@](C)(NC(=O)CN)C(=O)NCC(=O)N[C@@H](CCCCN)C(=O)N[C@@H](Cc3ccccc3)C(=O)N2)CCCC=CCCC[C@@](C)(C(=O)N[C@@H](C)C(=O)N[C@@H](CCCCN)C(=O)N[C@@H](CCCCN)C(N)=O)NC(=O)[C@H](CCC(=O)O)NC1=O [compound 21] (H-G[S5]GKF[S5]HKKKKFGKA[S5]VVE[S5]AKK-NH2; staple 2-6, 16-20) | 2 µg/mL | 2 µg/mL | 4 µg/mL | 4 µg/mL | >64 µg/mL | 251 µg/mL (≈ 96 µM) | 208 µg/mL (≈ 79.5 µM)

Continued, in another order:

Minimum Inhibitory Concentration (MIC) E. coli [1] | Minimum Inhibitory Concentration (MIC) A. baumannii [2] | Minimum Inhibitory Concentration (MIC) P. aeruginosa [3] | Minimum Inhibitory Concentration (MIC) K. pneumoniae [4] | Minimum Inhibitory Concentration (MIC) S. aureus [5] | IC50 at 90 min [6] | SMILES | IC50 at 48 hours [7]
4 µg/mL | 4 µg/mL | 4 µg/mL | 16 µg/mL | >64 µg/mL | > 200 µg/mL | CC(C)[C@@H]1NC(=O)[C@@](C)(NC(=O)[C@H](C)NC(=O)[C@H](CCCCN)NC(=O)CNC(=O)[C@H](Cc2ccccc2)NC(=O)[C@H](CCCCN)NC(=O)[C@H](CCCCN)NC(=O)[C@H](CCCCN)NC(=O)[C@H](CCCCN)NC(=O)[C@H](Cc2c[nH]cn2)NC(=O)[C@]2(C)CCCC=CCCC[C@](C)(NC(=O)CN)C(=O)NCC(=O)N[C@@H](CCCCN)C(=O)N[C@@H](Cc3ccccc3)C(=O)N2)CCCC=CCCC[C@@](C)(C(=O)N[C@@H](C)C(=O)N[C@@H](CCCCN)C(=O)N[C@@H](CCCCN)C(N)=O)NC(=O)[C@H](CCC(=O)O)NC(=O)CNC1=O [compound 3] (H-G[S5]GKF[S5]HKKKKFGKA[S5]VGE[S5]AKK-NH2; staple 2-6, 16-20) | > 200 µg/mL
2 µg/mL | 2 µg/mL | 4 µg/mL | 8 µg/mL | >64 µg/mL | 115 µg/mL (≈ 45.3 µM) | CC(C)[C@@H]1NC(=O)[C@@](C)(NC(=O)[C@H](C)NC(=O)[C@H](CCN)NC(=O)CNC(=O)[C@H](Cc2ccccc2)NC(=O)[C@H](CCCCN)NC(=O)[C@H](CCCCN)NC(=O)[C@H](CCCCN)NC(=O)[C@H](CCCCN)NC(=O)[C@H](CCCCN)NC(=O)[C@]2(C)CCCC=CCCC[C@](C)(NC(=O)CN)C(=O)NCC(=O)N[C@@H](CCCCN)C(=O)N[C@@H](Cc3ccccc3)C(=O)N2)CCCC=CCCC[C@@](C)(C(=O)N[C@@H](C)C(=O)N[C@@H](CCCCN)C(=O)N[C@@H](CCCCN)C(N)=O)NC(=O)[C@H](CCC(=O)O)NC(=O)CNC1=O [compound 39] (H-G[S5]GKF[S5]KKKKKFG[Dab]A[S5]VGE[S5]AKK-NH2; staple 2-6, 16-20) | 140 µg/mL (≈ 55.2 µM)
4 µg/mL | 2 µg/mL | 2 µg/mL | 32 µg/mL | 64 µg/mL | 100 µg/mL (≈ 41 µM) | CC(C)[C@@H]1NC(=O)[C@@](C)(NC(=O)[C@H](C)NC(=O)[C@H](CCCN)NC(=O)CNC(=O)[C@H](Cc2ccccc2)NC(=O)[C@H](CCCN)NC(=O)[C@H](CCCN)NC(=O)[C@H](CCCN)NC(=O)[C@H](CCCN)NC(=O)[C@H](CCCN)NC(=O)[C@]2(C)CCCC=CCCC[C@](C)(NC(=O)CN)C(=O)NCC(=O)N[C@@H](CCCN)C(=O)N[C@@H](Cc3ccccc3)C(=O)N2)CCCC=CCCC[C@@](C)(C(=O)N[C@@H](C)C(=O)N[C@@H](CCCN)C(=O)N[C@@H](CCCN)C(N)=O)NC(=O)[C@H](CCC(=O)O)NC(=O)CNC1=O [compound 24] (H-G[S5]G[Orn]F[S5][Orn][Orn][Orn][Orn][Orn]FG[Orn]A[S5]VGE[S5]A[Orn][Orn]-NH2; staple 2-6, 16-20) | 44 µg/mL (≈ 18 µM)
